What was measured:
M1 muscarinic receptor = molecular target: T1, M1 muscarinic receptor (Homo sapiens, UniProt P11229); experiment: Functional mobilization of intracellular calcium (FLIPR, Fluo-3), M1-CHO cells; type: cell-based; conditions: compound nos. 1-454; for Emax: 100% efficacy is the maximum response obtained with the Carbachol control, read-out: M1 Efficacy
T1 construct: expressed in transfected cells; host or cells: CHO cells (M1-CHO, under zeocin and G418 selection)
T1 sequence (P11229 1-460): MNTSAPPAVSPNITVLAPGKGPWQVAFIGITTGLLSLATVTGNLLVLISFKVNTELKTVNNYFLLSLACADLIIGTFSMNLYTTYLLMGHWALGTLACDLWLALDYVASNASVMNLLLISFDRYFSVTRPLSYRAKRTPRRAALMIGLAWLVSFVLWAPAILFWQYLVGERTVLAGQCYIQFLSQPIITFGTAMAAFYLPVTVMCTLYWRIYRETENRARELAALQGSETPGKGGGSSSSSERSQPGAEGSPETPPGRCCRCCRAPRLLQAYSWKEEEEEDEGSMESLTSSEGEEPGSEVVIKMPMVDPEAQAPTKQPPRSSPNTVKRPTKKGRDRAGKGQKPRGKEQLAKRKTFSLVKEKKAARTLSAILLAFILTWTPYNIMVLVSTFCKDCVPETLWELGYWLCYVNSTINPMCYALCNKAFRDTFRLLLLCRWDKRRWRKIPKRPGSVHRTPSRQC
Method: (§1) CHO cells expressing muscarinic receptors (M1 to M5) are grown as monolayers in tissue culture flasks at 37° C. in a humidified atmosphere containing 5% CO2 and passaged every 3-5 days. The growth media is Dulbecco's modified eagles medium (DMEM, Gibco Cat#12430-054), containing 25 mM Hepes and supplemented with Fetal Bovine Serum (Hyclone, cat# SH30071.03), 0.1 mM of MEM non-essential amino acids (GIBCO, Cat# 11140-050), 1 mM MEM Sodium Pyruvate (GIBCO Cat# 11360-070) and 100 units/ml of Penicillin G and 100 μg/ml of Streptomycin (GIBCO Cat# 15140-122). The recombinant muscarinic receptor cell lines are grown under antibiotic pressure with media containing 25 μm/ml zeocin and 500 μg/ml G418 (M1-CHO), 4 μg/ml puromycin, 50 μg/ml zeocin and 2.5 μm/ml blasticidin (M2 and M4-CHO) or 50 μg/ml zeocin and 4 μg/ml puromycin (M3 and M5-CHO).
(§2) Cells are harvested at 80-90% confluence using Versene (GIBCO Cat# 15040-066), collected by centrifugation and seeded 18-24 hrs prior to running the calcium assay at a density of 5,000-10,000 cells/well in […], clear-bottomed 384-well plates (BD Biocoat, poly-D-lysine, Cat#356663). The day of the experiment, the cells are washed with a plate washer (Bioteck Instruments, ELX 405) using bath1 buffer (140-mM NaCl, 4.5-mM KCL, 2-mM CaCl2, 1-mM MgCl2, 10-mM Hepes-Na, 10-mM Glucose, pH 7.4, with NaOH) containing 1 mM Probenecid. Next, the calcium dye Fluo-3 (25 μl/well of Fluo-3 μM at 4 μM, Molecular Probes F-1241, in Bath 1 buffer containing 1 mM Probenecid) is added to the 25 μl of Bath 1 remaining in each well after the plate wash and the dye is loaded at 37° C. in the tissue culture incubator for 60-90 min. The fluorescent dye is removed using the plate washer with Bath 1 containing 1 mM Probenecid, leaving 25 μl/well of this solution after the wash. Alternatively, cells can be loaded with the calcium indicator from Molecular Devices (Calcium 3 Assay Reagents, Cat # R7181) adding 5 μl of a 5× solution dye in Bath 1 containing 1 mM Probenecid (10 ml per dye flask cat# R7182 to generate a solution 20×) to 20 μl of the same buffer. After loading for 60 min, the experiment can be run without having to remove the dye.
(§3) Compounds are prepared at a 2× fold concentration in a 96-well plate (round bottom, Costar Corning cat# 3656), by reconstituting the pre-spotted compounds in bath 1 containing 1 mM probenecid. The final concentration DMSO is 0.5%, and the amount of DMSO is normalized across the assay plate. To determine an agonist action of the compounds on muscarinic receptors, the reconstituted compounds are added (25 μl compound/well) to the cell assay plate (containing 25 μl/well) using the multi-channel robotic system of the FLIPR 3 Instrument (Molecular Devices, Sunnyvale, Calif.). To determine a functional inhibitory action of the compounds on muscarinic receptors, the reconstituted compounds are added (25 μl compound/well) to the assay plate and pre-incubated for 15 min prior to adding 25 μl of Carbachol at 3× the EC80 for each muscarinic subtype. Alternatively, the compounds can be co-applied simultaneously with the agonist. In both assay modes, the fluorescence is recorded for 60 sec (excitation wavelength is […] and emission wavelength 540 nm) using the FLIPR 3 instrument.
(§4) The potency, efficacy and selectivity of the muscarinic compounds were evaluated by screening the compound activity across the whole family (M1 to M5 cells). Compounds were also screened for activity on other proteins such as other GPCRs and ion channels to determine selectivity on M4 receptors.

M4 muscarinic receptor = molecular target: T2, M4 muscarinic receptor (Homo sapiens, UniProt P08173); experiment: Functional mobilization of intracellular calcium (FLIPR, Fluo-3), M4-CHO cells; type: cell-based; conditions: compound nos. 1-454; for Emax: 100% efficacy is the maximum response obtained with the Carbachol control, read-out: M4 Efficacy
T2 construct: expressed in transfected cells; host or cells: CHO cells (M4-CHO, under puromycin, zeocin and blasticidin selection)
T2 sequence (P08173 1-479): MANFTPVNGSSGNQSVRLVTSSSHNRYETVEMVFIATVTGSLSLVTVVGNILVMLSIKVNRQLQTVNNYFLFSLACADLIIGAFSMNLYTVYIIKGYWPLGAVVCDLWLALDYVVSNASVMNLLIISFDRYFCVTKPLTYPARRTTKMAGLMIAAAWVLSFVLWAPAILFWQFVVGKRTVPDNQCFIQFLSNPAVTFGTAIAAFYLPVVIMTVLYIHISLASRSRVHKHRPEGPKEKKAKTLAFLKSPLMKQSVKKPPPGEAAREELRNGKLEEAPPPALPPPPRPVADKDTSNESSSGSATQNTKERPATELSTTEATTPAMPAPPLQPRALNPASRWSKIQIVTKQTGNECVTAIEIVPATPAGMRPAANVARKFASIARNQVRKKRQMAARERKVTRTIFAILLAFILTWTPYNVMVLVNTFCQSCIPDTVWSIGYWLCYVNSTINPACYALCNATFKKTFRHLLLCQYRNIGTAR
Method: as §1, §2, §3, §4

[1] = M1-CHO cells, calcium mobilization
[2] = M4-CHO cells, calcium mobilization

| Compound | Emax (M1 muscarinic receptor) [%] | M1 Activity (M1 muscarinic receptor; [1]) | Emax (M4 muscarinic receptor) [%] | M4 Activity (M4 muscarinic receptor; [2]) | M1 Activity (M1 muscarinic receptor) | M4 Activity (M4 muscarinic receptor) |
| --- | --- | --- | --- | --- | --- | --- |
| CS(=O)(=O)N[C@H]1CC2(CCN(C[C@H]3C[C@H]4C=C[C@H]3C4)CC2)c2ccccc21 [compound 70] | 65 to 85 | ++ (activity was measured to be between 0.7 μM and 3.0 μM) | 55 to 70 | + (activity was measured to be greater than or equal to 4.0 μM) | – | – |
| COC(=O)N1CCC(CN2CCC3(CC2)CN(C(C)=O)c2ccc(F)cc23)CC1 [compound 129] | 65 to 85 | +++ (activity was measured to be less than or equal to 0.7 μM) | < 55 | + (activity was measured to be greater than or equal to 4.0 μM) | – | – |
| O=C(C1CC1)N1CC2(CCN(C3CC4CCC(C3)N4C(=O)O[C@H]3CCOC3)CC2)c2cc(F)ccc21 (stereo partly drawn) [compound 57] | 65 to 85 | +++ (activity was measured to be less than or equal to 0.7 μM) | 55 to 70 | +++ (activity was measured to be less than or equal to 0.1 μM) | – | – |
| CCOC(=O)N1CCC(CN2CCC3(CC2)COc2ccc(F)cc23)CC1 [compound 107] | 65 to 85 | +++ (activity was measured to be less than or equal to 0.7 μM) | < 55 | + (activity was measured to be greater than or equal to 4.0 μM) | – | – |
| Clc1ccc2c(c1)C1(CCN(C3C[C@@H]4CCC3C4)CC1)CO2 (stereo in doubt) [compound 1, 1′-((1S,2R,4R)-bicyclo[2.2.1]heptan-2-yl)-5-chloro-2H-spiro[benzofuran-3,4′-piperidine]] | 65 to 85 | ++ (activity was measured to be between 0.7 μM and 3.0 μM) | > 70 | ++ (activity was measured to be between 0.1 μM and 4.0 μM) | – | – |
| CC(=O)N[C@H]1CC2(CCN(CC3CCN(C(=O)OC(C)C)CC3)CC2)c2ccccc21 [compound 399] | 65 to 85 | – | < 55 | – | ++ (activity was measured to be between 0.7 μM and 3.0 μM) | ++ (activity was measured to be between 0.1 μM and 4.0 μM) |
| CC(=O)N1CC2(CCN(C3CCCC(C(F)(F)F)C3)CC2)c2cc(F)ccc21 (stereo not drawn) [compound 425] | < 65 | – | < 55 | – | + (activity was measured to be greater than or equal to 3.0 μM) | + (activity was measured to be greater than or equal to 4.0 μM) |
| CCOC(=O)N1CCC(N2CCC3(CC2)CN(C(C)=O)c2ccc(-c4cccnc4)cc23)CC1 [compound 234] | 65 to 85 | +++ (activity was measured to be less than or equal to 0.7 μM) | 55 to 70 | +++ (activity was measured to be less than or equal to 0.1 μM) | – | – |
| Clc1ccc2c(c1)C1(CCN(CC3CCCCC3)CC1)CN2 [compound 157] | 65 to 85 | +++ (activity was measured to be less than or equal to 0.7 μM) | > 70 | + (activity was measured to be greater than or equal to 4.0 μM) | – | – |
| CC(=O)N[C@H]1CC2(CCN(C3CCCCC3)CC2)c2ccccc21 [compound 196] | 65 to 85 | +++ (activity was measured to be less than or equal to 0.7 μM) | < 55 | + (activity was measured to be greater than or equal to 4.0 μM) | – | – |
| O=C(O[C@@H]1CCOC1)N1CC2(CCN(C3CC4CCC(C3)N4C(=O)O[C@H]3CCOC3)CC2)c2cc(F)ccc21 (stereo partly drawn) [compound 198] | 65 to 85 | ++ (activity was measured to be between 0.7 μM and 3.0 μM) | < 55 | + (activity was measured to be greater than or equal to 4.0 μM) | – | – |
| Cc1cc(C(=O)N2CC3(CCN(C4CC5CCC(C4)N5C(=O)O[C@H]4CCOC4)CC3)c3cc(F)ccc32)nn1C (stereo partly drawn) [compound 233] | 65 to 85 | +++ (activity was measured to be less than or equal to 0.7 μM) | > 70 | +++ (activity was measured to be less than or equal to 0.1 μM) | – | – |
| CCOC(=O)N1C2CCC1CC(N1CCC3(CC1)CNc1ccc(C)cc13)C2 (stereo not drawn) [compound 109] | 65 to 85 | +++ (activity was measured to be less than or equal to 0.7 μM) | < 55 | ++ (activity was measured to be between 0.1 μM and 4.0 μM) | – | – |
| CCOC(=O)N1CCC(N2CCC3(CC2)CN(C(=O)CC)c2ccc(F)cc23)CC1 [compound 317] | < 65 | + (activity was measured to be greater than or equal to 3.0 μM) | < 55 | + (activity was measured to be greater than or equal to 4.0 μM) | – | – |
| CCOC(=O)N1CCC(N2CCC3(CC2)CN(C(=O)c2cc(C)oc2C)c2ccc(F)cc23)CC1 [compound 335] | < 65 | + (activity was measured to be greater than or equal to 3.0 μM) | < 55 | + (activity was measured to be greater than or equal to 4.0 μM) | – | – |
| C#CCOC(=O)N1CCC(N2CCC3(CC2)CN(C(C)=O)c2ccc(C)cc23)CC1 [compound 81] | < 65 | ++ (activity was measured to be between 0.7 μM and 3.0 μM) | < 55 | + (activity was measured to be greater than or equal to 4.0 μM) | – | – |
| Cc1ccc2c(c1)C1(CCN(CC3CC4C=CC3C4)CC1)CN2 (stereo not drawn) [compound 3] | 65 to 85 | +++ (activity was measured to be less than or equal to 0.7 μM) | 55 to 70 | ++ (activity was measured to be between 0.1 μM and 4.0 μM) | – | – |
| O=C1CC2(CCN(C[C@H]3C[C@H]4C=C[C@H]3C4)CC2)c2ccccc21 [compound 104] | 65 to 85 | +++ (activity was measured to be less than or equal to 0.7 μM) | < 55 | + (activity was measured to be greater than or equal to 4.0 μM) | – | – |
